Test results published in patent publication US20260294905A1, “USE OF PLURALITY OF COMPOUNDS IN PREPARATION OF DRUG FOR TREATING MYELOPROLIFERATIVE NEOPLASMS” (THE SECOND XIANGYA HOSPITAL OF CENTRAL SOUTH UNIVERSITY, priority 2022, published 2026).
Values joined by “and” are separate entries in the source; they are usually repeats but may differ in a detail not shown here. Identical values can stand only once. “Also recorded” adds a separate entry of the source.

Legend:
[1] = test system: HEL cells (human erythroleukemia cell line); assay: Annexin V-PI staining and flow cytometry, apoptosis of HEL cells, 24 h; assay type: cell-based; details: for promotion of apoptosis of HEL cells (in words): 0.1-10 μM
Experimental: • 1. the cell lines and inhibitors were the same as those in Example 1. • 2. detection of cell apoptosis
(§1) To detect the apoptosis-promoting effect of the inhibitors, HEL naïve cell strains were treated with Ruxolitinib and the compounds for 24 hours respectively (with concentrations of: 0, 0.1, 0.5, 1 μM or 0, 0.1, 0.3, 1, 3, 10 μM), and added with DMSO to make up to the same amount. 3 parallel replicate groups were set up, and cell apoptosis was detected by Annexin V and PI staining followed by flow cytometry.
(§2) A calculation formula of cell apoptosis rate was: cell apoptosis rate=the ratio of early apoptotic cells (Annexin V^+/PI^−)+the ratio of late apoptotic cells and necrotic cells (Annexin V^+/PI^+).

[2] = test system: HEL cells (human erythroleukemia cell line); assay: CellTiter-Lumi luminescence proliferation of naive HEL cells, 48 h; assay type: cell-based; details: for inhibition of proliferation of HEL cells (in words): 0.1-10 μM; for activity at 0.1 µM / activity at 0.3 µM / activity at 1 µM / activity at 3 µM / activity at 10 µM: Homo sapiens, 48 h, vs DMSO control, read-out: average proliferation rate of HEL cells
Experimental: (§3) HELs (Human erythroleukemia cell lines) and Ruxolitinib-resistant HEL cells were both cultured in a RPMI medium (Gibco) containing 20% heat-inactivated fetal bovine serum (Gibco) and 1% penicillin/streptomycin.
(§4) Ruxolitinib and other compounds were all purchased from Selleck, dissolved in DMSO with a stock solution concentration of 10 mM, and cryopreserved at −80° C. The working solution was diluted to a specified multiple using a RPMI medium and then used for treating cells. Ruxolitinib was specifically ruxolitinib phosphate.
(§5) To detect the antiproliferative effect of the inhibitor, the aforementioned cell lines were cultured at 3,000 cells/100 μL of the system per well, added with increasing concentrations of Ruxolitinib (concentration gradients of HEL cells: 0, 0.1, 1, 2.5, 5 μM; or 0, 0.1, 0.3, 1, 3, 10 μM), and added with DMSO to make up to the same amount. 4 parallel replicate groups were set up, and 3 blank wells (wells containing culture media without cells) were set up.
(§6) A calculation formula of the cell proliferation rate was: cell proliferation rate=(Luminescence value of the group added with the drug-average Luminescence value of the blank wells)/(Luminescence value of the DMSO control group-average Luminescence value of the blank wells)×100%.
In order to detect the effects of the compounds on the proliferation abilities of drug-resistant myeloproliferative neoplasm cells, the method was to treat the HEL naïve cell lines with increasing concentrations of Ruxolitinib and the compounds respectively, and to detect the proliferation of the cells by a CellTiter-Lumi™ luminescence method.

neuroblastoma cells = details: cited from earlier work
[3] = test system: non-small cell lung cancer; details: non-small cell lung cancer patients, RP2D 275 mg per day; cited from earlier work
[4] = test system: HEL^RE cells (Ruxolitinib-resistant HEL); assay: CellTiter-Lumi luminescence proliferation of Ruxolitinib-resistant HEL^RE cells, 48 h; assay type: cell-based, human; details: HEL^RE cells; for inhibition of proliferation of HEL^RE cells (in words): 0.1-10 μM; for activity at 0.1 µM / activity at 0.3 µM / activity at 1 µM / activity at 3 µM / activity at 10 µM: Homo sapiens, 48 h, vs DMSO control, read-out: average proliferation rate of HEL^RE cells
Description: as §3
A Ruxolitinib-resistant HEL model, i.e., a HEL^RE model, was constructed by starting the addition of Ruxolitinib at a concentration lower than the IC50 of naïve cells and slowly incrementing the concentration to a high concentration, and preventing the cells from being killed. Our starting concentration was 0.1 μM. The drug was added upon occurrence of cell proliferation. The drug addition gradient was an increment at a multiple of 1.25, and the final concentration was 2.0 μM. Stable drug-resistant cells were obtained after 4-6 weeks.
as §4, §5, §6
A method for evaluating whether the model was successfully constructed was to compare the IC50s of resistant cells and naïve cells.
In order to detect the effects of five compounds on the proliferation abilities of drug-resistant myeloproliferative neoplasm cells, the method was to treat HEL^RE with increasing concentrations of Ruxolitinib and the five compounds respectively, and to detect the proliferation of the cells by a CellTiter-Lumi™ luminescence method.

[5] = test system: HEL^RE cells (Ruxolitinib-resistant HEL); assay: Annexin V-PI staining and flow cytometry, apoptosis of HEL^RE cells; assay type: cell-based, human; details: for average apoptosis rate of HEL-RE cells: 24 h; for promotion of apoptosis of HEL^RE cells (in words): 0.1-10 μM
Experimental: as §1, §2
In order to detect the effects of compounds on the abilities of drug-resistant myeloproliferative neoplasm cells, the method was to treat HEL^RE with increasing concentrations of Ruxolitinib and the compounds, and to detect cell apoptosis by Annexin V and PI staining followed by flow cytometry.

[6] = test system: neuroblastoma mouse model; details: cited from earlier work
[7] = test system: preclinical model including melanoma; details: cited from earlier work
[8] = orally once a week, RP2D 420 mg/m^2 (not exceeding 600 mg); cited from earlier work

COc1cc2ncnc(Oc3cccc(NC(=O)Nc4cc(C(C)(C)C(F)(F)F)on4)c3)c2cc1OC [Agerafenib]
average apoptosis rate of HEL cells ([1]; 0.1 μM): 4.41±0.630% and 4.41% | average apoptosis rate of HEL cells ([1]; 0.3 μM): 4.98±1.09% and 4.98% | average apoptosis rate of HEL cells ([1]; 1 μM): 3.42±0.140% and 3.42% | average apoptosis rate of HEL cells ([1]; 3 μM): 5.27% | average apoptosis rate of HEL cells ([1]; 10 μM): 5.43±0.720% and 5.43% | promotion of apoptosis of HEL cells (in words) [1]: could not promote apoptosis of the HEL cells | inhibition of proliferation of HEL cells (in words) [2]: can successfully inhibit the proliferation of the HEL cells; also recorded: could inhibit the proliferation of the HEL cells, and this effect was increased with the increase of the drug concentration | activity at 0.1 µM [2]: 90.1 ± 3.01% | activity at 0.3 µM [2]: 93.8 ± 12.4% | activity at 1 µM [2]: 83.2 ± 4.45% | activity at 3 µM [2]: 70.3 ± 3.47% | activity at 10 µM [2]: 40.1 ± 8.26% | proliferation and colony formation of neuroblastoma cells (neuroblastoma cells; in vitro): able to inhibit the proliferation and colony formation of neuroblastoma cells in vitro | combination with traditional chemotherapy drugs (neuroblastoma cells; with traditional chemotherapy drugs): had a synergistic effect with traditional chemotherapy drugs | anti-tumor activity [3]: good anti-tumor activity | inhibition of proliferation of HEL^RE cells (in words) [4]: could inhibit the proliferation of the HEL^RE cells, and this effect was increased with the increase of the drug concentration | activity at 0.1 µM [4]: 4.26 ± 0.46% | activity at 0.3 µM [4]: 2.77 ± 0.43% | activity at 1 µM [4]: 2.75 ± 0.94% | activity at 3 µM [4]: 2.21 ± 0.04% | activity at 10 µM [4]: 1.86 ± 0.23% | average apoptosis rate of HEL-RE cells ([5]; 0.1 μM): 7.05±0.920% and 7.05% | average apoptosis rate of HEL-RE cells ([5]; 0.3 μM): 5.33±0.430% and 5.33% | average apoptosis rate of HEL-RE cells ([5]; 1 μM): 5.11±0.210% and 5.11% | average apoptosis rate of HEL-RE cells ([5]; 3 μM): 7.37±0.220% and 7.37% | average apoptosis rate of HEL-RE cells ([5]; 10 μM): 8.22±0.390% and 8.22% | promotion of apoptosis of HEL^RE cells (in words) [5]: could not promote apoptosis of the HEL^RE cells | tumor growth and survival [6]: able to inhibit tumor growth of and prolong the survival of mice significantly

C[C@@H](NC(=O)c1ncnc(N)c1Cl)c1ncc(C(=O)Nc2cc(C(F)(F)F)c(Cl)cn2)s1 [MLN2480]
average apoptosis rate of HEL cells ([1]; 0.1 μM): 4.61±2.768% and 4.61% | average apoptosis rate of HEL cells ([1]; 0.3 μM): 3.85±0.101% and 3.85% | average apoptosis rate of HEL cells ([1]; 1 μM): 5.53±1.22% and 5.53% | average apoptosis rate of HEL cells ([1]; 3 μM): 10.04±2.663% and 10.04% | average apoptosis rate of HEL cells ([1]; 10 μM): 8.8±1.063% and 8.8% | promotion of apoptosis of HEL cells (in words) [1]: could not promote the apoptosis of myeloproliferative neoplasm cells | inhibition of proliferation of HEL cells (in words) [2]: could not inhibit the proliferation of the HEL cells | activity at 0.1 µM [2]: 98.5 ± 2.62% | activity at 0.3 µM [2]: 97.9 ± 3.55% | activity at 1 µM [2]: 97.3 ± 0.78% | activity at 3 µM [2]: 98.3 ± 0.65% | activity at 10 µM [2]: 97.6 ± 3.47% | anti-tumor activity [7]: good anti-tumor activity | inhibition of proliferation of HEL^RE cells (in words) [4]: could inhibit the proliferation of drug-resistant myeloproliferative neoplasm cells, and this effect was increased with the increase of the drug concentration | overall effectiveness among the compounds ([4]; proliferation and apoptosis taken together): more effective | activity at 0.1 µM [4]: 103 ± 8.58% | activity at 0.3 µM [4]: 75.1 ± 3.54% | activity at 1 µM [4]: 46.5 ± 9.45% | activity at 3 µM [4]: 18.9 ± 4.22% | activity at 10 µM [4]: 10.3 ± 0.49% | average apoptosis rate of HEL-RE cells ([5]; 0.1 μM): 6.54±0.560% and 6.54% | average apoptosis rate of HEL-RE cells ([5]; 0.3 μM): 7.80±0.900% and 7.80% | average apoptosis rate of HEL-RE cells ([5]; 1 μM): 10.9±0.390% and 10.9% | average apoptosis rate of HEL-RE cells ([5]; 3 μM): 15.5±0.580% and 15.5% | average apoptosis rate of HEL-RE cells ([5]; 10 μM): 13.8±0.775% and 13.8% | promotion of apoptosis of HEL^RE cells (in words) [5]: could promote apoptosis of Ruxolitinib-resistant myeloproliferative neoplasm cells, and this effect was increased with the increase of the drug concentration; also recorded: can promote the apoptosis of the HEL^RE cells | safety [8]: good safety and low toxic and side effects
